The record followed here is publication PMC3973022, “Quercetin and quercetin 3-O-glycosides from Bauhinia longifolia (Bong.) Steud. show anti-Mayaro virus activity” (Parasites & Vectors, 2014).

The test system of one data set is Mayaro virus (MAYV). Description: microbe, parasite or virus in culture. The class given is cell-based. The conditions noted are these: for IC90: Vero, 24 h, read-out: IC90 (90% inhibitory concentration of viral replication); for IC50: read-out: IC50 (50% inhibitory concentration of viral replication), MAYV MOI 0.1 in Vero cells, 24 h treatment; for anti-MAYV activity (in words): concentrations tested 0–100 μg/ml. On the procedure: (§1) Vero cells (African green monkey kidney, ATCC CCL-81) were grown at 37°C with 5% CO2, in Dulbecco’s modified Eagle’s medium (DMEM) (Life Technologies, USA) supplemented with 5% fetal bovine serum (Cultilab, BRA), 50 IU/mL of penicillin, and 50 μg/mL of streptomycin (Sigma-Aldrich, USA). Mayaro viruses (ATCC VR-66, lineage TR 4675) were propagated in Vero cells and viral stocks in 10% glycerol were kept at -70°C. Virus titer was determined by plaque assay (described under ‘Antiviral activity assay’).
Antiviral activity was evaluated using a virus yield inhibition assay. Briefly, confluent cell monolayers grown in 24-well plates were infected with MAYV (multiplicity of infection = 0.1) for 1 hour, then rinsed with PBS and treated for 24 hours (at 37°C and 5% CO2) with different concentrations (0–100 μg/ml) of flavonoids or extracts diluted in culture medium. After treatment, culture supernatants were recovered and used for titration of extracellular infectious virus particles. For virus titration, confluent cell monolayers in 24-well plates were infected with serial dilutions of recovered supernatants for 1 hour at 37°C, 5% CO2. After inoculum removal, cells were rinsed with PBS and the monolayer was incubated with fresh medium with 2% carboxymethylcellulose (Sigma-Aldrich, USA) for 48 hours at 37°C, 5% CO2. Finally, cells were fixed with 20% formaldehyde and stained with 0.5% crystal violet in 20% ethanol, and viral plaques were counted. […] P-values < 0.05 were considered statistically significant.

Data set [1] in a line: Cytotoxicity by dye-uptake (neutral red) assay. The following applies: African green monkey. On the procedure:
as §1
Briefly, confluent cultures of Vero cells in 96-well microplates were treated with culture media containing different concentrations of the substances being tested. After 24 hours, the culture medium was replaced by a solution of 50 μg/mL neutral red and the cells were incubated for 3 hours, at 37°C, 5% CO2. Cells were then fixed with 20% formaldehyde and extracted with 50% methanol and 1% acetic acid, before measurement of absorbance at λ490 nm, using a spectrophotometer, to detect neutral red incorporation by living cells.

≈ marks a conversion by molar mass, not a printed value. Entries after “also recorded” stand apart in the source; their conditions may differ. A value given as a limit tells only on which side of the number the result lay.

Regarding `NC(=O)c1ncn([C@@H]2O[C@H](CO)[C@@H](O)[C@H]2O)n1` [Ribavirin, reference compound], in the data set with Mayaro virus (MAYV) (Mayaro virus), the IC90 was greater than 100 µg/mL and the IC50 worked out at 62 ± 4 µg/mL (≈ 254 µM). For the same compound, in data set [1], the midpoint of cytotoxicity, the CC50 at 24 h, lay at 523 ± 42 µg/mL (≈ 2140 µM).
As to `C[C@@H]1O[C@@H](Oc2c(-c3ccc(O)c(O)c3)oc3cc(O)cc(O)c3c2=O)[C@H](O)[C@H](O)[C@H]1O` [Quercitrin, quercetin-3-O-α-rhamnoside], in the data set with Mayaro virus (MAYV) (Mayaro virus), the IC90 was greater than 100 µg/mL and the IC50 is greater than 100 µg/mL. In addition, in the data set with Mayaro virus (MAYV) (Vero cells), the “anti-MAYV activity (in words)” value is recorded as “did not show significant antiviral activity; also recorded: absence of anti-MAYV activity”. For the same compound, half-maximal cytotoxicity in data set [1] (CC50 at 24 h) was put at 411 ± 46 µg/mL (≈ 917 µM).
Take `O=c1c(OC2OCC(O)C(O)C2O)c(-c2ccc(O)c(O)c2)oc2cc(O)cc(O)c12` (stereo not drawn) [Guaijaverin, quercetin-3-O-α-arabinoside]: in the data set on Mayaro virus (MAYV) (Mayaro virus), the IC90 was greater than 100 µg/mL and the IC50 is greater than 100 µg/mL. Moreover, the “anti-MAYV activity (in words)” value with Mayaro virus (MAYV) (Vero cells) was “did not show significant antiviral activity; also recorded: absence of anti-MAYV activity”. Moreover, half-maximal cytotoxicity in data set [1] (CC50 at 24 h) was put at 795 ± 54 µg/mL (≈ 1830 µM).
On to `O=c1c(O)c(-c2ccc(O)c(O)c2)oc2cc(O)cc(O)c12` [Quercetin, quercetin], for which, in the data set with Mayaro virus (MAYV) (CC50 in Vero cells / IC50 against MAYV), the “SI (Selectivity Index = CC50/IC50)” value is on record as 94. In addition, in the data set with Mayaro virus (MAYV) (Mayaro virus), the IC90 was 19 ± 0.7 µg/mL (≈ 62.9 µM) and the IC50 is 10 ± 0.7 µg/mL (≈ 33.1 µM). Further, the inhibition at 25 µg/mL in the data set with Mayaro virus (MAYV) (Mayaro virus, at 25 μg/mL, Vero cells, read-out: inhibition of MAYV replication/production) is greater than 90%. The “anti-MAYV activity (in words)” value in the data set on Mayaro virus (MAYV) (Vero cells) is “showed significant anti-MAYV activity”. The compound further showed a CC50 at 24 h in data set [1] of 941 ± 123 µg/mL (≈ 3110 µM).
